Results reported in patent US20110275721A1, “METHOD FOR THE PURIFICATION OF SUBSTITUTED CYCLOPENT-2-EN-1-ONE CONGENERS AND SUBSTITUTED 1,3-CYCLOPENTADIONE CONGENERS FROM A COMPLEX MIXTURE USING COUNTERCURRENT SEPARATION” (Metaproteomics, LLC, priority 2008, published 2011).

Assay: Shake-flask liquid distribution ratio (Kd), Hexane:Water:Buffer of 10:9:1
Type: physicochemical
Conditions: THIAA Aug. 5, 2008
Procedure: Several shake-flask experiments were conducted to test several solvent systems and determine the liquid distribution ratio (Kd) and partition coefficient values for optimal separations. Partition coefficient values derived from shake-flask experiments are a reliable predictor of countercurrent chromatographic behavior. Kd is the concentration of the analyte in the upper phase divided by the concentration of the analyte in the lower phase and, in the alternative, may be listed as Ku/l.
General Procedure and Parameters for Shake Flask Experiments: Addition of 1 mL of the stock buffer at a known pH. Addition of the other necessary solvents to make up the system. Addition of the analyte mixture dissolved in hexane at 400 mg/mL. Final analyte concentration in the shake flask is 0.1 mg/mL. The flask was capped and mixed (by a vortex mixer) for 10 seconds. An aliquot was taken from the upper phase for HPLC analysis, and additionally a separate aliquot was taken from the lower phase for HPLC analysis from each flask. Each component was analyzed by HPLC and integrated using Shimadzu Class VP Software version 7.3 SP1.

| SMILES | K Value (pH 4.9) | K Value (pH 5.5) | K Value (pH 5.6) | K Value (pH 6.0) |
| --- | --- | --- | --- | --- |
| CCC(C)C(=O)C1=C(O)[C@@](O)(C(=O)CCC(C)C)[C@H](CCC(C)C)C1=O (single isomer, unassigned; (+)) [TH 4] | 55.6 | 16.1 | 11.0 | 5.5 |
| CC(C)CCC(=O)[C@]1(O)C(O)=C(C(=O)C(C)C)C(=O)[C@H]1CCC(C)C [TH 1, (+)-(4R,5S)-3,4-dihydroxy-2-isobutyryl-5-(3-methylbutyl)-4-(4-methylpentanoyl)cyclopent-2-en-1-one] | 16.5 | 4.2 | 3.0 | 1.5 |
| CC(C)CCC(=O)[C@@]1(O)C(O)=C(C(=O)C(C)C)C(=O)[C@H]1CCC(C)C [TH 2, (−)-(4S,5S)-3,4-dihydroxy-2-isobutyryl-5-(3-methylbutyl)-4-(4-methylpentanoyl)cyclopent-2-en-1-one] | 10.8 | 2.5 | 1.8 | 0.9 |
| CCC(C)C(=O)C1=C(O)C(O)(C(=O)CCC(C)C)C(CCC(C)C)C1=O (stereo not drawn) [TH 3, trans tetra ad-isoalpha acid] | 60.3 | 17.8 | 11.4 | 5.5 |
| CC(C)CCC(=O)[C@]1(O)C(O)=C(C(=O)CC(C)C)C(=O)[C@H]1CCC(C)C [TH 5, (+)-(4R,5S)-3,4-dihydroxy-2-(3-methylbutanoyl)-5-(3-methylbutyl)-4-(4-methylpentanoyl)cyclopent-2-en-1-one] | 32.8 | 9.5 | 6.6 | 3.3 |
